Assay results as given in the NIST ThermoML archive (doi:10.1021/je400212t).
Where “and” joins values, the source holds several entries; their conditions need not be identical. Equal values may be shown once.

Conditions: Liquid, Transpiration method

CCCCCCCCN [1-octanamine]
Conditions | vapor or sublimation pressure
274.2 K | 0.0157 kPa
277.7 K | 0.0208 kPa
281 K | 0.0274 kPa
283.2 K | 0.0325 kPa
283.6 K | 0.0347 kPa
285.9 K | 0.0428 kPa
286.5 K | 0.0428 kPa
289.2 K | 0.0517 kPa
289.6 K | 0.0545 kPa
292.4 K | 0.069 kPa and 0.0677 kPa
295.2 K | 0.084 kPa
295.3 K | 0.0856 kPa and 0.0834 kPa
298.1 K | 0.1047 kPa
298.5 K | 0.1064 kPa
301.1 K | 0.1353 kPa
301.2 K | 0.1294 kPa and 0.1369 kPa and 0.1341 kPa
301.3 K | 0.1312 kPa and 0.1328 kPa
304 K | 0.1653 kPa
304.1 K | 0.1667 kPa
307.1 K | 0.2113 kPa
307.3 K | 0.2102 kPa
310.2 K | 0.2494 kPa
310.3 K | 0.2578 kPa
312.3 K | 0.3051 kPa
313 K | 0.3121 kPa
313.3 K | 0.3238 kPa

CC(N)c1ccccc1 (configuration not stated) [1-phenylethanamine]
Conditions | vapor or sublimation pressure
283.6 K | 0.02509 kPa
287.8 K | 0.03534 kPa
291.3 K | 0.04928 kPa and 0.04951 kPa
295.3 K | 0.06595 kPa
299.2 K | 0.08866 kPa
303.1 K | 0.1183 kPa
307.1 K | 0.1552 kPa
311 K | 0.2024 kPa
314.9 K | 0.2602 kPa
318.9 K | 0.3391 kPa
322.8 K | 0.4391 kPa

CCCCCCCN [1-heptanamine]
Conditions | vapor or sublimation pressure [kPa]
280.2 K | 0.07823
282.2 K | 0.09451
284.2 K | 0.1088
286.2 K | 0.1232
288.2 K | 0.1408
290.2 K | 0.1641
292.2 K | 0.1907
294.2 K | 0.2219
296.2 K | 0.2488
298.3 K | 0.2885
300.3 K | 0.3288
302.2 K | 0.38
303.2 K | 0.4098
306.2 K | 0.5027

NCCc1ccccc1 [2-phenylethylamine]
Conditions | vapor or sublimation pressure
285.2 K | 0.01545 kPa
287.4 K | 0.01817 kPa
288.2 K | 0.01989 kPa and 0.01942 kPa
290.1 K | 0.02316 kPa
293.1 K | 0.02888 kPa
293.2 K | 0.03129 kPa
298.2 K | 0.04648 kPa and 0.04334 kPa
298.3 K | 0.0443 kPa
300.1 K | 0.05196 kPa
302 K | 0.06007 kPa
303.2 K | 0.06532 kPa
303.3 K | 0.06414 kPa and 0.06328 kPa
304.2 K | 0.06955 kPa
305.1 K | 0.07177 kPa and 0.0755 kPa
306.4 K | 0.08176 kPa
308.2 K | 0.09258 kPa and 0.0878 kPa
310.4 K | 0.1067 kPa
311.2 K | 0.1201 kPa
313.2 K | 0.1331 kPa
313.4 K | 0.1311 kPa
314.2 K | 0.1374 kPa
317.2 K | 0.1818 kPa
318.2 K | 0.1891 kPa
318.4 K | 0.1878 kPa
320.2 K | 0.2187 kPa
323.2 K | 0.2655 kPa

CCCCCCCCCCN [1-decanamine]
Conditions | vapor or sublimation pressure
299.1 K | 0.013 kPa
300.2 K | 0.014 kPa
301.3 K | 0.0158 kPa
304 K | 0.0195 kPa
306.2 K | 0.0228 kPa
307.3 K | 0.0262 kPa
308.6 K | 0.0291 kPa
310.2 K | 0.0321 kPa
312.2 K | 0.036 kPa
313.2 K | 0.0426 kPa
315.1 K | 0.046 kPa
316.2 K | 0.0512 kPa
317.2 K | 0.0553 kPa
320 K | 0.0655 kPa
320.9 K | 0.0722 kPa
323.2 K | 0.0805 kPa
324.3 K | 0.0911 kPa and 0.0914 kPa
327.2 K | 0.106 kPa
330.1 K | 0.135 kPa and 0.1356 kPa
332.8 K | 0.1661 kPa and 0.1645 kPa
333.1 K | 0.1628 kPa and 0.1635 kPa
335.9 K | 0.1979 kPa and 0.2119 kPa
338.9 K | 0.2519 kPa and 0.2628 kPa
341.9 K | 0.3064 kPa and 0.3025 kPa
343 K | 0.3357 kPa

NCc1ccccc1 [benzylamine]
Conditions | vapor or sublimation pressure
275.5 K | 0.01437 kPa
276.7 K | 0.01472 kPa and 0.01525 kPa
278.6 K | 0.01828 kPa
279.6 K | 0.01912 kPa and 0.02004 kPa
281.5 K | 0.02307 kPa
282.3 K | 0.02534 kPa and 0.02615 kPa
284.5 K | 0.03135 kPa
285.7 K | 0.03458 kPa and 0.03341 kPa
287.6 K | 0.03874 kPa
288 K | 0.03934 kPa
290.5 K | 0.04695 kPa
291.6 K | 0.05362 kPa
293.5 K | 0.06098 kPa
294.2 K | 0.06487 kPa
296.5 K | 0.07884 kPa
297.7 K | 0.08247 kPa
298.4 K | 0.0869 kPa
300.3 K | 0.1015 kPa
301.3 K | 0.1137 kPa
303.3 K | 0.1283 kPa
303.4 K | 0.1277 kPa and 0.1263 kPa
303.5 K | 0.126 kPa
304.3 K | 0.1363 kPa
306.1 K | 0.1469 kPa
306.3 K | 0.1514 kPa
307.4 K | 0.1693 kPa
308.3 K | 0.1781 kPa
308.4 K | 0.1767 kPa
309.4 K | 0.1871 kPa
309.5 K | 0.1951 kPa
310.3 K | 0.2082 kPa
312.2 K | 0.2284 kPa
312.3 K | 0.2272 kPa and 0.2339 kPa
313.4 K | 0.2491 kPa
315.6 K | 0.3016 kPa
